Assay results from ChEMBL document CHEMBL4311997, “Discovery of a potent histone deacetylase (HDAC) 3/6 selective dual inhibitor” (Eur J Med Chem, 2019).
Values after ≈ are worked out from the molar mass of the structure shown.

Tests used:
[1] = molecular target: Histone-lysine N-methyltransferase SUV39H1 (Homo sapiens) (UniProt O43463); assay: Inhibition of human SUV39H1 at 100 uM using histone H3 as substrate incubated for 1 hr in presence of [3H]-SAM by filter binding method relative to control
Sequence of Histone-lysine N-methyltransferase SUV39H1 (Homo sapiens) (O43463 whole entry): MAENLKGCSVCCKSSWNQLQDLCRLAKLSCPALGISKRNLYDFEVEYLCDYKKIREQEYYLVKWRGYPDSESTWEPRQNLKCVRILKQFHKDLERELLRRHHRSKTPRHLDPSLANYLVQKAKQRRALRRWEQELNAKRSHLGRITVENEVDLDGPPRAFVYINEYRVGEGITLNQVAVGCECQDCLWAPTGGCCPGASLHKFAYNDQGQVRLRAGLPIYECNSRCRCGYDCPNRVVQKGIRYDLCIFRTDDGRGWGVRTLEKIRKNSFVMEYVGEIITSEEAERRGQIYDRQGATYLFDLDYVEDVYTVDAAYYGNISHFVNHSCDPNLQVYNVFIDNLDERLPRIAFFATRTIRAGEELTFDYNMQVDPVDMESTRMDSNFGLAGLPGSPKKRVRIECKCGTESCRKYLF

Homo sapiens [2] = organism: Homo sapiens; assay: Inhibition of human MLL1 complex at 100 uM using core histone as substrate incubated for 1 hr in presence of [3H]-SAM by filter binding method relative to control
[3] = molecular target: Histone-lysine N-methyltransferase EHMT2 (Homo sapiens) (UniProt Q96KQ7); assay: Inhibition of human G9a at 100 uM using core histone H3 (1 to 21 residues) as substrate incubated for 1 hr in presence of [3H]-SAM by filter binding method relative to control
Sequence of Histone-lysine N-methyltransferase EHMT2 (Homo sapiens) (Q96KQ7 whole entry, the tested form may be a part): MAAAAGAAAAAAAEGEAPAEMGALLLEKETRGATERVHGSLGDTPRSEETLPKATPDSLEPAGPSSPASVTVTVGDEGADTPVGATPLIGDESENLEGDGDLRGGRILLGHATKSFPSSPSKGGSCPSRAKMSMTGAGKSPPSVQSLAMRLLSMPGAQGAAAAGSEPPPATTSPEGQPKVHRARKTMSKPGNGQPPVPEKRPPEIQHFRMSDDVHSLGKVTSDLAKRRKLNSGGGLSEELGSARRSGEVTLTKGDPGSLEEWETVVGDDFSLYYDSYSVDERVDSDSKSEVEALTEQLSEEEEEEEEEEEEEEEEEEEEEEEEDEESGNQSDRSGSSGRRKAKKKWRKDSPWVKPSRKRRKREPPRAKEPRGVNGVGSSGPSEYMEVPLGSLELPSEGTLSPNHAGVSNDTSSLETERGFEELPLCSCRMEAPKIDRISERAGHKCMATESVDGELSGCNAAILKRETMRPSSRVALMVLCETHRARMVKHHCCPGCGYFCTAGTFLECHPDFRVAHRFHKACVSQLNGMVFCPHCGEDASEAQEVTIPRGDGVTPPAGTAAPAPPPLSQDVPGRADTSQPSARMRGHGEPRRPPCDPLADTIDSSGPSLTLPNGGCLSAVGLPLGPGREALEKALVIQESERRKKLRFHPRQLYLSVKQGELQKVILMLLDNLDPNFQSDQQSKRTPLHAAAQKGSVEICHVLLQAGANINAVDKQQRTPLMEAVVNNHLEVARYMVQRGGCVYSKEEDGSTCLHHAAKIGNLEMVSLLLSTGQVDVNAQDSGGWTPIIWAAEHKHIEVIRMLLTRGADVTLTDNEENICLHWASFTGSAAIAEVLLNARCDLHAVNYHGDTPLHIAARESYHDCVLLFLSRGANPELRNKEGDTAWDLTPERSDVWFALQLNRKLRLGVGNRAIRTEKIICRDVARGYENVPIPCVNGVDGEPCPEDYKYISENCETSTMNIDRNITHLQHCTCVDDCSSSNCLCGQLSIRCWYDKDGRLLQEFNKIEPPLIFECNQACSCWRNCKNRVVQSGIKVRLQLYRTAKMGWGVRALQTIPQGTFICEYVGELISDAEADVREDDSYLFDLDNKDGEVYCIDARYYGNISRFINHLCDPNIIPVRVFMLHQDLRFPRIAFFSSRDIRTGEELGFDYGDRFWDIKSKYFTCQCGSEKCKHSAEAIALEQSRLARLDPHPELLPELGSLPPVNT

[4] = molecular target: DNA (cytosine-5)-methyltransferase 1 (Homo sapiens, UniProt P26358); assay: Inhibition of human DNMT1 using Poly(dI-dC) as substrate incubated for 1 hr in presence of [3H]-SAM by filter binding method
Sequence of DNA (cytosine-5)-methyltransferase 1 (P26358 whole entry): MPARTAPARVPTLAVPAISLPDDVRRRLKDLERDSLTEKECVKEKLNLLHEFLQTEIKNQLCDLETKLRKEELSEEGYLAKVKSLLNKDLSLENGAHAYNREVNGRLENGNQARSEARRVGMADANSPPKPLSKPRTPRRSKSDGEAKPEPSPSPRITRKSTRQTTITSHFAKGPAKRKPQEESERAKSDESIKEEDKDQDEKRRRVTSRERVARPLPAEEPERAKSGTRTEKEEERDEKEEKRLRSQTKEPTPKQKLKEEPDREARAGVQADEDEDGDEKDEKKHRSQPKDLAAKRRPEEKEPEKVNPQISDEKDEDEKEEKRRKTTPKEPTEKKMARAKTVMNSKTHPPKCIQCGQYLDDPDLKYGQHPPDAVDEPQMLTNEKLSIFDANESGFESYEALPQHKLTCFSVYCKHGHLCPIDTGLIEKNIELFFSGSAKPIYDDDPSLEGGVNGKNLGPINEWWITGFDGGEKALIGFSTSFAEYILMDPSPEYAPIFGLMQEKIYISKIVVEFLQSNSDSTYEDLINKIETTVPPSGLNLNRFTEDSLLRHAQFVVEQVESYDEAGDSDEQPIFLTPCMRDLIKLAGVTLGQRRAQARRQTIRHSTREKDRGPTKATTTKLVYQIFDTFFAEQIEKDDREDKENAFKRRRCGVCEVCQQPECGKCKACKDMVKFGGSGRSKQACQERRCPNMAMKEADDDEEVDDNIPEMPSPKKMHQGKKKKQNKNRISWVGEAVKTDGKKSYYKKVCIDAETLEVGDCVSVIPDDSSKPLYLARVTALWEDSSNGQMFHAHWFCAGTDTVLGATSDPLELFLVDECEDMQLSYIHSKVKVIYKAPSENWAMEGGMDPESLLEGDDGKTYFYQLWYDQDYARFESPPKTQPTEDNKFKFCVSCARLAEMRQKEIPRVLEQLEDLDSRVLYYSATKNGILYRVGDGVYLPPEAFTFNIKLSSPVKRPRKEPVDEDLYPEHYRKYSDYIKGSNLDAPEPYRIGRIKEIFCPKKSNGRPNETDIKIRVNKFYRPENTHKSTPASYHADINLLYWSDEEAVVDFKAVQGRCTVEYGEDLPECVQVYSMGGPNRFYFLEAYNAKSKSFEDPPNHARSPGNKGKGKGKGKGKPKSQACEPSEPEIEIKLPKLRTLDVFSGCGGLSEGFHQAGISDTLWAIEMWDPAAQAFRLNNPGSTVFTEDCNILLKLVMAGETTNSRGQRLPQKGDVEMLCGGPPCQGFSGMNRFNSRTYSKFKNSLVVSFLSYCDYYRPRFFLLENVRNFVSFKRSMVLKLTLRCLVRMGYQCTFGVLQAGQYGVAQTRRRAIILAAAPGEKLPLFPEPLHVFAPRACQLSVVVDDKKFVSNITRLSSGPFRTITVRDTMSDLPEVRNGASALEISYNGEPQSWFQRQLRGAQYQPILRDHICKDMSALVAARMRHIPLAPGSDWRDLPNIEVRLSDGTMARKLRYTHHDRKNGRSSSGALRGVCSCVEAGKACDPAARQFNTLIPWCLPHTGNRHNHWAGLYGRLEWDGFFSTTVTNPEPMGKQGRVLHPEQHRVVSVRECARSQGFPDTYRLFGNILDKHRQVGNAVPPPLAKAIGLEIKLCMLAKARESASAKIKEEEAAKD

Homo sapiens [5] = organism: Homo sapiens; assay: Selectivity ratio of IC50 for human HDAC8 to IC50 for human HDAC6
[6] = molecular target: Histone deacetylase 9 (Homo sapiens) (UniProt Q9UKV0); assay: Inhibition of human HDAC9 at 10 uM using Acetyl-Lys (trifluoroacetyl)-AMC) as substrate incubated for 2 hrs by fluorescence assay relative to control
Sequence of Histone deacetylase 9 (Homo sapiens) (Q9UKV0 whole entry): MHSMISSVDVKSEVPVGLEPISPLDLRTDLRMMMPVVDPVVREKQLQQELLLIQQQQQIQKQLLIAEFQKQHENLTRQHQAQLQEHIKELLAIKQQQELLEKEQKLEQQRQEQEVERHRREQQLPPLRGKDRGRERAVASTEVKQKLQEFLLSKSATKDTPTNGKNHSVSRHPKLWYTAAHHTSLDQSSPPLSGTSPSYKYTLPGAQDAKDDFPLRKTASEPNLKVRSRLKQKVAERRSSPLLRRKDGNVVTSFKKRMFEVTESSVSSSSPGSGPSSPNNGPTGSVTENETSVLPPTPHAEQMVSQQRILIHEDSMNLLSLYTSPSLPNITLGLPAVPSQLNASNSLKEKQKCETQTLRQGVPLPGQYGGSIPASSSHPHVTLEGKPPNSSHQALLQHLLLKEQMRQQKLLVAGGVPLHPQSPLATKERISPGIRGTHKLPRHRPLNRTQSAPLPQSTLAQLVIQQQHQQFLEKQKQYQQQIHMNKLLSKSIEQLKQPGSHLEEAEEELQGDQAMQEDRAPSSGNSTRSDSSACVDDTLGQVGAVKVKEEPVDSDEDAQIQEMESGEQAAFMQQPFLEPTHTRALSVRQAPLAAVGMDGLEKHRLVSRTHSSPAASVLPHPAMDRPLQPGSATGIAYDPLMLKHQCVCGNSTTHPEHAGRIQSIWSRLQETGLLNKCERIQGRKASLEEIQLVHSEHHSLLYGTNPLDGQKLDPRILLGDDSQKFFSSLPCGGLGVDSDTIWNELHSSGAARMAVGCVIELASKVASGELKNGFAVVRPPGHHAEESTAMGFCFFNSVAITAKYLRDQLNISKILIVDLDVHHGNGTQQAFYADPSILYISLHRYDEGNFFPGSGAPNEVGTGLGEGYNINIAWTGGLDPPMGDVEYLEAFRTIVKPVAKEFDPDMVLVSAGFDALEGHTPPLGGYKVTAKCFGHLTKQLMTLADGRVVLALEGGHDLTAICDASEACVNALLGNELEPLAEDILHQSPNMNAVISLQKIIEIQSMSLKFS

[7] = molecular target: T1, Protein deacetylase HDAC6 (Homo sapiens, UniProt Q9UBN7); assay: Inhibition of human HDAC6 using Arg-His-Lys-Lys (Ac) as substrate incubated for 2 hrs by fluorescence assay
T1 sequence (Q9UBN7 whole entry): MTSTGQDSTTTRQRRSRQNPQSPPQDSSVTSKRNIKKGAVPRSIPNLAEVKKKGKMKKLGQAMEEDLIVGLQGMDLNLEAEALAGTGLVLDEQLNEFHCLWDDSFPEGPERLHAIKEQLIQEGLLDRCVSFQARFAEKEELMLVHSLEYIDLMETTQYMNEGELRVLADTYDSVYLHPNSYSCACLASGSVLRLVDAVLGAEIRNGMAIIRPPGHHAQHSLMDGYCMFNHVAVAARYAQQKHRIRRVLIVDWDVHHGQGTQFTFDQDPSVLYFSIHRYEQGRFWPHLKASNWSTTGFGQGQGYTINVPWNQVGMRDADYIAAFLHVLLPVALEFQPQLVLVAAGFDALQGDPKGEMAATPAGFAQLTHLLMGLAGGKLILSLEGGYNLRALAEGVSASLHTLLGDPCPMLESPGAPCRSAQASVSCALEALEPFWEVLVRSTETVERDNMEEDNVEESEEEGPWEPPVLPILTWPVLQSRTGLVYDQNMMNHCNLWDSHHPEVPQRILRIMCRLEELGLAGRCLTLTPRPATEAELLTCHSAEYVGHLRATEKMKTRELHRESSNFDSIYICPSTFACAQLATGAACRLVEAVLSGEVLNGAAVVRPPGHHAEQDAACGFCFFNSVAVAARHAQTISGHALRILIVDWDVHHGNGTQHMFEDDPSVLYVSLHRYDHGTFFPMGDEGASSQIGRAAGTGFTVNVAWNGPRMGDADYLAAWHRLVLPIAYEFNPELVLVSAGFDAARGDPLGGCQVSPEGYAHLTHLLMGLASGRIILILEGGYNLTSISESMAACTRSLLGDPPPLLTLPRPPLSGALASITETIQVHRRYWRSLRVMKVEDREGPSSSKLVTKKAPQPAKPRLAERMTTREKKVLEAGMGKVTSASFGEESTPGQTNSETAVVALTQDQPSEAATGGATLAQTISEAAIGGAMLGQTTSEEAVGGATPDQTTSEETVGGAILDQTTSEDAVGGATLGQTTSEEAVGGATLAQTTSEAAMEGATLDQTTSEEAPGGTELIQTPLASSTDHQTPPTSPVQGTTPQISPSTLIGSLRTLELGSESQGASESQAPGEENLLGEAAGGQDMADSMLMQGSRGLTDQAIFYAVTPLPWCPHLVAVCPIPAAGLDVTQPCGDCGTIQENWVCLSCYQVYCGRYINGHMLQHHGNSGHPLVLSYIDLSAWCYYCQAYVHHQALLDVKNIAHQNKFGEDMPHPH

MOLM-14 = assay: Antiproliferative activity against human MOLM14 cells incubated for 48 hrs by CellTiter-Glo luminescent cell viability assay; assay type: functional, cell-based; conditions: MOLM-14, 48 h
MDA-MB-231 [8] = assay: Induction of apoptosis in human MDA-MB-231 cells assessed as viable cells at 3 uM incubated for 48 hrs by Annexin V-FITC/PI staining by flow cytometric analysis (reference value: 77%); assay type: functional; conditions: MDA-MB-231, 48 h, read-out: Activity
MDA-MB-231 [9] = assay: Induction of apoptosis in human MDA-MB-231 cells assessed as early apoptotic cells at 6 uM incubated for 48 hrs by Annexin V-FITC/PI staining by flow cytometric analysis (reference value: 5%); assay type: functional
MDA-MB-231 [10] = assay: Induction of apoptosis in human MDA-MB-231 cells assessed as late apoptotic cells at 6 uM incubated for 48 hrs by Annexin V-FITC/PI staining by flow cytometric analysis (reference value: 3%); assay type: functional
MDA-MB-231 [11] = assay: Induction of apoptosis in human MDA-MB-231 cells assessed as necrotic cells at 6 uM incubated for 48 hrs by Annexin V-FITC/PI staining by flow cytometric analysis (reference value: 15%); assay type: functional
MDA-MB-231 [12] = assay: Induction of apoptosis in human MDA-MB-231 cells assessed as viable cells at 9 uM incubated for 48 hrs by Annexin V-FITC/PI staining by flow cytometric analysis (reference value: 77%); assay type: functional; conditions: MDA-MB-231, 48 h, read-out: Activity
[13] = molecular target: Histone deacetylase 1/2/3 (Homo sapiens, UniProt Q13547+O15379+Q92769); assay: Inhibition of HDAC1/2/3 in human KMS-12-BM cells assessed as increase in Ac-H3 level incubated for 24 hrs by Western blot analysis; assay type: cell-based
[14] = Kinetic solubility in pH 7.4 universal buffer measured after 24 hrs by UV spectroscopic analysis; assay type: physicochemical; conditions: read-out: Kinetic_solubility
[15] = Effective permeability of the compound at pH 7.4 measured after 6 hrs by PAMPA assay; assay type: ADME; conditions: read-out: Peff
[16] = Genotoxicity in Salmonella typhimurium TA98 in presence of S9 fraction incubated for 48 hrs by Ames test relative to control; assay type: toxicity, subcellular; conditions: salmonella enterica subsp. enterica serovar typhimurium, s9, 48 h
[17] = Half life in mouse liver microsomes at 3 uM preincubated for 5 mins followed by NADPH addition and measured up to 45 mins by LC-MS/MS analysis; assay type: ADME, Microsome
[18] = Half life in male rat liver microsomes at 3 uM preincubated for 5 mins followed by NADPH addition and measured up to 45 mins by LC-MS/MS analysis; assay type: ADME, Microsome
[19] = molecular target: Histone-lysine N-methyltransferase EHMT2 (Homo sapiens, UniProt Q96KQ7); assay: Inhibition of human G9a using core histone H3 (1 to 21 residues) as substrate incubated for 1 hr in presence of [3H]-SAM by filter binding method
Sequence of Histone-lysine N-methyltransferase EHMT2 (Q96KQ7 whole entry, the tested form may be a part): as the sequence (Q96KQ7 whole entry, the tested form may be a part) above

Homo sapiens [20] = organism: Homo sapiens; assay: Selectivity ratio of IC50 for inhibition of human HDAC2 to IC50 for inhibition of human HDAC3

With COc1ccc(CN2CCC(Nc3nc(Nc4ccc(NC(=O)CCCCCCC(=O)NO)cc4)nc4cc(OC)c(OC)cc34)CC2)cc1 as the molecule, how does the inhibition [1] read?
The inhibition was 14%.

What about the inhibition (Homo sapiens [2]) of the same molecule?
The inhibition was 42%.

What about the inhibition [3] of the same molecule?
Its inhibition is 37%.

What about the IC50 [4] of the same molecule?
Its IC50 is 14 µM.

What about the Ratio IC50 (Homo sapiens [5]) of the same molecule?
The Ratio IC50 was 485.

And the inhibition [6]?
The inhibition was 21%.

What about the IC50 [7] of the same molecule?
Its IC50 is 2.57 nM.

What about the EC50 (MOLM-14) of the same molecule?
Its EC50 is 2800 nM.

What about the viability at 3 µM (MDA-MB-231 [8]) of the same molecule?
The viability at 3 µM was 48%.

And the Activity (MDA-MB-231 [9])?
The Activity was 18%.

And the Activity (MDA-MB-231 [10])?
Its Activity is 15%.

And the Activity (MDA-MB-231 [11])?
The Activity was 12%.

What about the viability at 9 µM (MDA-MB-231 [12]) of the same molecule?
The viability at 9 µM was 57%.

And the EC50 [13]?
Its EC50 is 7.5 µM.

What about the inhibition [13] of the same molecule?
The inhibition was “Dose-dependent effect”.

What about the solubility kinetic at 24 h [14] of the same molecule?
The solubility kinetic at 24 h was 4 µM (≈ 2.74 µg/mL).

And the Papp at 6 h [15]?
The Papp at 6 h was 21.8 ×10⁻⁶ cm/s.

What about the Activity [16] of the same molecule?
The Activity was “Non-Toxic”.

And the half-life at 3 µM [17]?
Its half-life at 3 µM is 26.6 min.

What about the half-life at 3 µM [18] of the same molecule?
The half-life at 3 µM was 143 min.

What about the EC50 [19] of the same molecule?
The EC50 was 142 µM.

What about the Ratio IC50 (Homo sapiens [20]) of the same molecule?
Its Ratio IC50 is 26 to 33.
